Experimental data from ChEMBL document CHEMBL1201862, “PubChem BioAssay data set” (2004).
Active and inactive are the calls of the source. Cut-off read from the data, not from the text of the source: actives have a measured IC50 and inactives only a lower limit.

Molecular target: Envelope glycoprotein gp160 (Human immunodeficiency virus 1, UniProt Q6QLK5)
Test: cell-free HIV fusion peptide-binding blockers – biochemical, uHTS, fluorescence dequenching, […] (AID 1986)

Chain of Envelope glycoprotein gp160 (Q6QLK5 whole entry, the tested form may be a part): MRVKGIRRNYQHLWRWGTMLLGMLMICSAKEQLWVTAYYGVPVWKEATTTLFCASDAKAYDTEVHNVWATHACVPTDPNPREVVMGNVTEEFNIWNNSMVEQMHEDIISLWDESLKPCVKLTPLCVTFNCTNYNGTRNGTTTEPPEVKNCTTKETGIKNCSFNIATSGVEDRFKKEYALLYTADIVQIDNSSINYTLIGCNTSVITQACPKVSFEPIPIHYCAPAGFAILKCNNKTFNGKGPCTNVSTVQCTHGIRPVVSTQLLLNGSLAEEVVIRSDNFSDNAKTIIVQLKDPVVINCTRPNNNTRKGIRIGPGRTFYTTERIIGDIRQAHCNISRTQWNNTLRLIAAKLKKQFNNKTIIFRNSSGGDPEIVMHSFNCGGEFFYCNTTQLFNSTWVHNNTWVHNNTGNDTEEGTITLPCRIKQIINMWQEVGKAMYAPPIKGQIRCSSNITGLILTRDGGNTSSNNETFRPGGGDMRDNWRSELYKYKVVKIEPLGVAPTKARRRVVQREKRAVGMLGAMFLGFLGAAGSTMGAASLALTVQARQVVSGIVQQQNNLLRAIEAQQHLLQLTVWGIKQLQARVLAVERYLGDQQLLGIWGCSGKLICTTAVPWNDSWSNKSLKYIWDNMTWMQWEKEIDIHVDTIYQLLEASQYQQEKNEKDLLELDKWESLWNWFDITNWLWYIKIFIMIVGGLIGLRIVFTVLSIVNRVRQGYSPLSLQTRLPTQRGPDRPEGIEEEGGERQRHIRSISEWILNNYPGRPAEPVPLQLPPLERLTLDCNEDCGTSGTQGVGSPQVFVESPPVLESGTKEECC

SMILES | IC50
CN(C)S(=O)(=O)c1cccc(-c2nn(-c3ccccc3)cc2/C=C2\SC(=S)NC2=O)c1 | 11.8 µM (active)
COc1cc(C(c2c(C(=O)O)[nH]c3ccccc23)c2c(C(=O)O)[nH]c3ccccc23)ccc1OCc1ccccc1 | 7.01 µM (active)
